Measurements taken from patent publication US11517575B2, “Use of minaprine to reduce tumor growth” (Institut Gustave-Roussy, priority 2019, dated 2022).

System: HCT116 cells
Test: Screening of chemical libraries for IR-mediated cellular cannibalism (imaging flow cytometry, confocal validation)
Format: cell-based, human
Conditions: for enhancement of IR-mediated cellular cannibalism: 8 Gy irradiated HCT116 cells, 10 μM compound, 24 h culture, dihydrochloride
Experimental: FIG. 4 Identification of cannibalism modulators triggered by ionizing radiation. Compounds from the Prestwick (A) and CEA (F) libraries were tested for their capacities to induce cellular cannibalism after ionizing radiation. Cannibal cells were detected after homotypic cultures of 8 gray γ-irradiation HCT116 cells in the presence or absence of 10 μM of the Prestwick (A) and CEA […] library compounds. Each dot represents one compound. Representative images are shown in (B, G). (C, H) HCT116 cells were treated with the indicated drugs. After 24 h of treatment, cell death was monitored by staining with 3,3 dihexyloxacarbocyanine iodide (DiOC6(3)) and PI^+, and the percentage of dying (DiOC6(3)^low PI^−, open bars) and dead (DiOC6(3)^low PI^+, closed bars) cells was determined by cytofluorometry. Validation of the cannibalism inducers by fluorescent microscopy. Representative images (D, I) and quantification (E, J) are shown. Results are means s.e.m. of triplicate determinations.
Untreated HCT116 cells were labeled with CMFDA (green fluorescence, CMFDA^+) or CMTMR, (red fluorescence, CMTMR) and treated HCT116 cells with CMFDA (green fluorescence, CMFDA^+). The following cell mixtures were performed: untreated CMTMR^+ HCT116 cells were mixed with untreated CMFDA^+ HCT116 cells, or untreated CMTMR^+ HCT116 cells were mixed with treated CMFDA^+ HCT116 cells. Then, cells were co-cultured during 24 hours in the presence or absence of the pharmacological inhibitor of ROCK, Y27632 (30 μM), the pan-caspase inhibitor, Z-VAD-fmk (ZVAD, 100 μM), the inhibitor of caspase-1, Ac-YVAD-cmk (YVAD, 100 μM), the necroptosis inhibitor, Necrostatin-1 (NEC1, 30 μM), the inhibitor of the vacuolar type H(+)-ATPase (V-ATPase) inhibiting autophagy, Bafilomycin A1 (BafA1, 50 nM), the inhibitor of Cdks with an anti-mitotic activity, Roscovitine (Rosco, 10 μM). After 24 hours of co-culture, both detached and adherent cells were collected and stained with Hoechst […] (10 μg/mL) during 1 hour at 37° C. in warmed complete medium. To detect phosphatidylserine (PS) exposure and plasma membrane permeability, labeled HCT116 cells were successively incubated with Biotin-AnnexinV (BD Pharmingen) as recommended by manufacturer, […] BV786-Streptavidin (BD Biosciences) and 3 μM DRAQ7 (BioStatus) during 15 minutes at 25° C. After washing with PBS solution, samples were immediately analyzed using an imaging flow cytometer FlowSight® (Amnis®, part of EMD Millipore). Data were acquired at a 20× magnification, using INSPIRE software. The 405 nm, 488 nm, and 561 nm lasers were used for excitation. Brightfield, Annexin V-BV786, DRAQ7, CMFDA, CMTMR and Hoechst […] stainings were detected using respectively channels for 420-480 nm, 745-800 nm, 642-745 nm, 480-560 nm, 595-642 nm and 430-505 nm. At least 1000 events of cells per sample were analyzed. Additional single-labeled controls were prepared to normalize fluorescent signal across different channels. Acquired data were analyzed using the IDEAS analysis software (v6.1; Merck-Millipore). Gating strategy was the following. Cells were gated for focused cells using the Gradient RMS feature. Cells were gated for single cells using the aspect ratio and area features. For the cannibalism detection, cells were gated in the double positive CMFDA^+ and CMTMR^+ staining.
To detect PS exposure, plasma membrane permeability and cell cycle progression, cells were after co-culture sequentially labeled with specific fluorescent probes (such as FITC-conjugated AnnexinV, propidium iodide, and Hoechst 33342) and analyzed by flow cytometry. Both detached and adherent cells were collected and stained with Hoechst […] (10 μg/ml) during 1 hour at 37° C. in warmed complete medium. After washing with PBS, HCT116 cells were suspended in 1× binding buffer supplemented with fluorescein isothiocyanate (FITC)-conjugated Annexin V (BD Biosciences) and propidium iodide (PI, 1 μg/mL) (Sigma), as per manufacturer's instructions. […]

Compound: Cc1cc(-c2ccccc2)nnc1NCCN1CCOCC1.Cl.Cl [Minaprine dihydrochloride]
- enhancement of IR-mediated cellular cannibalism: efficient cellular cannibalism enhancer
- enhancement of IR-mediated cellular cannibalism (listed as Minaprine): significantly increased in presence of ionizing radiation
- induction of cellular cannibalism (Type IV cell death) (cancer cells treated with compound, without IR): favors the induction of Type IV cell death modality
